According to patent publication US20200239530A1, “COMPOUNDS AND METHODS OF MODULATING PROTEIN DEGRADATION” (Vividion Therapeutics, Inc., priority 2017, published 2020):
Like-named read-outs stand apart in the source and are kept apart here. Blank lines part the entries; values can stand above or below the compound they belong to.

Columns and labels:
Assay in all cases: Competitive cysteine profiling, probe competition (Table 2B)
Format in all cases: binding
Q96C12 = target: T1, Q96C12 (Homo sapiens, UniProt Q96C12)
T1 construct: Cells were resuspended in cold PBS on ice and sonicated with a probe sonicator to achieve lysis; endogenous in cells
T1 sequence (Q96C12 1-935): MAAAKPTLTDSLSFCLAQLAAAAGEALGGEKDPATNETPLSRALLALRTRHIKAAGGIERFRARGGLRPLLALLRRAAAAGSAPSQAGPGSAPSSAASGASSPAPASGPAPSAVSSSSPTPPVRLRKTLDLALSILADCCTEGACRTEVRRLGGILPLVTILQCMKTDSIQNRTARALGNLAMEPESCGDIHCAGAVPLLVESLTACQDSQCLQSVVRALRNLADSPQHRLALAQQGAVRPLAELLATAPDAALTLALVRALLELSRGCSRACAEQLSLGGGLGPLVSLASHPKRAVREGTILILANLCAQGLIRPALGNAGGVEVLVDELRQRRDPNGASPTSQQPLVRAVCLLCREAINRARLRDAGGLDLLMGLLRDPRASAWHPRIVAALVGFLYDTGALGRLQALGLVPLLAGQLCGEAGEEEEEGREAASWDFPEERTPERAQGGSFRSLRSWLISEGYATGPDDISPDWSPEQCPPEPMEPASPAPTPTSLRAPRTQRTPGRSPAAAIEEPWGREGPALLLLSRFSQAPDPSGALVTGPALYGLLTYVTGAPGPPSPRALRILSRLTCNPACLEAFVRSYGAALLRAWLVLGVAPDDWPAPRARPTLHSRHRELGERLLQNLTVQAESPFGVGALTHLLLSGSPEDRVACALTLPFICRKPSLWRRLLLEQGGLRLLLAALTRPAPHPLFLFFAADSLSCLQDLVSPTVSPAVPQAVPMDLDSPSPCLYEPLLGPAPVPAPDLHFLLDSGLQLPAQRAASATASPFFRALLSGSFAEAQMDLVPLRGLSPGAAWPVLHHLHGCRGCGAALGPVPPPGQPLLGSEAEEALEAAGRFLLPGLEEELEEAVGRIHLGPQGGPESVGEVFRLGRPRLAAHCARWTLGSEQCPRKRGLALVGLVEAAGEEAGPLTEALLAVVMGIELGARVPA
Excerpt: (§1) The following 96-well sample prep protocol was used for sample preparation.

Q9UKV5 = target: T2, Q9UKV5 (Homo sapiens, UniProt Q9UKV5)
T2 construct: Cells were resuspended in cold PBS on ice and sonicated with a probe sonicator to achieve lysis; endogenous in cells
T2 sequence (Q9UKV5 whole entry): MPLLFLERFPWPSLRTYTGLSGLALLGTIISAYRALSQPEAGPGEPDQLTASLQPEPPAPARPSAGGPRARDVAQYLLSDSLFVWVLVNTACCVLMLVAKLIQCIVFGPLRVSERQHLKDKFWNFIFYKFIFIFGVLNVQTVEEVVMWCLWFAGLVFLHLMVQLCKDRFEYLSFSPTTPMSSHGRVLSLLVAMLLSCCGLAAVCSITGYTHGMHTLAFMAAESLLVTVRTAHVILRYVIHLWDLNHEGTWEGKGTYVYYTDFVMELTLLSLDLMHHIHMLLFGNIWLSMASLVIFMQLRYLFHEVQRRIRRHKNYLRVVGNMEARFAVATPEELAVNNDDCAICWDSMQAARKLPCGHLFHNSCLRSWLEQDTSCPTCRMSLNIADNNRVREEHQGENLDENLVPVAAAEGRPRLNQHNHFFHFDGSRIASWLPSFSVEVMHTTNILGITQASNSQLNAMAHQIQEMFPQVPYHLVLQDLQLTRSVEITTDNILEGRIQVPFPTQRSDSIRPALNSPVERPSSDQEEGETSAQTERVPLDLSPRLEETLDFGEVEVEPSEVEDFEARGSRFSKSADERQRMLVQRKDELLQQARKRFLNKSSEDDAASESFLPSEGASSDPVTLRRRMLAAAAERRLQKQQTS
Excerpt: as §1

Q92624 = target: T3, Q92624 (Homo sapiens, UniProt Q92624)
T3 construct: Cells were resuspended in cold PBS on ice and sonicated with a probe sonicator to achieve lysis; endogenous in cells
T3 sequence (Q92624 1-585): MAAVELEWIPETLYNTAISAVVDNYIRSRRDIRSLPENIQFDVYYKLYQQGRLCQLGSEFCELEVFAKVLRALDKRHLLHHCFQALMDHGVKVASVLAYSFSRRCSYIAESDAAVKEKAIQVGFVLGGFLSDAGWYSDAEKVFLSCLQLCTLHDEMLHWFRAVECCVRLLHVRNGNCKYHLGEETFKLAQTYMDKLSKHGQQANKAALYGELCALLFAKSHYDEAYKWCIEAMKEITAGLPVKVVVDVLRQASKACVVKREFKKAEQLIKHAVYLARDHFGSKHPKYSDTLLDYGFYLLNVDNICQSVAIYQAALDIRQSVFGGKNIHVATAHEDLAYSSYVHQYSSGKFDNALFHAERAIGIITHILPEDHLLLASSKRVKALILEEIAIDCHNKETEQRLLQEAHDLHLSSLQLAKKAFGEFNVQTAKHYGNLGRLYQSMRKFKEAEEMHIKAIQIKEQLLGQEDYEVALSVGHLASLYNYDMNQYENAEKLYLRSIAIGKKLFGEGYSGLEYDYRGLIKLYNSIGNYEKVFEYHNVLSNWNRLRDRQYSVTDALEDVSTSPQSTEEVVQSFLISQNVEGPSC
Excerpt: as §1

Q96DX5 = target: T4, Q96DX5 (Homo sapiens, UniProt Q96DX5)
T4 construct: 200 μL of lysate containing 5 mg/ml proteome was treated with 2 μL of 100× compound stock; endogenous in cells
T4 sequence (Q96DX5 1-294): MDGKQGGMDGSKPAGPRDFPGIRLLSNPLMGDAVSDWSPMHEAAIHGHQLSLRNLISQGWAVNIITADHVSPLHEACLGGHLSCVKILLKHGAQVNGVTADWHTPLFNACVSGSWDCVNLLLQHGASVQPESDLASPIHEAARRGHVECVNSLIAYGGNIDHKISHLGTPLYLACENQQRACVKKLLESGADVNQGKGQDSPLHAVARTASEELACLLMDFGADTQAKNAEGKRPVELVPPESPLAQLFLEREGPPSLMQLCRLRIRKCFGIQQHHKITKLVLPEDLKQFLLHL
Excerpt: as §1

Q9NYG5 = target: T5, Q9NYG5 (Homo sapiens, UniProt Q9NYG5)
T5 construct: Cells were resuspended in cold PBS on ice and sonicated with a probe sonicator to achieve lysis; endogenous in cells
T5 sequence (Q9NYG5 whole entry): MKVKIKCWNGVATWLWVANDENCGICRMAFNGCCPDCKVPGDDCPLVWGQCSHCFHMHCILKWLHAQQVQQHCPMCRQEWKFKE
Excerpt: as §1

P60006 = target: T6, P60006 (Homo sapiens, UniProt P60006)
T6 construct: Cells were resuspended in cold PBS on ice and sonicated with a probe sonicator to achieve lysis; endogenous in cells
Excerpt: as §1

[1] = read-out: KB05_100 uM_percent_inhibition
[2] = 500 uM, read-out: KB05_500 uM_percent_inhibition
[3] = 100 uM, read-out: KB05_100 uM_percent_inhibition
[4] = read-out: KB02_100 uM_percent_inhibition
[5] = 500 uM, read-out: KB02_500 uM_percent_inhibition

inhibition at 100 µM (Q96C12; [1]): 23%
inhibition at 100 µM (Q9UKV5; [1]): 5%
inhibition at 500 µM (Q9UKV5; [2]): 18%
inhibition at 100 µM (Q92624; [3]): 34%
inhibition at 100 µM (Q96DX5; [1]): 12%
inhibition at 100 µM (Q9NYG5; [1]): 27%
inhibition at 100 µM (P60006; [3]): 24%
inhibition at 500 µM (P60006; [2]): 74%
Compound: C=CC(=O)N(c1ccccc1)c1ccc(Br)cc1 [KB05]

Compound: COc1ccc2c(c1)CCCN2C(=O)CCl [KB02]
inhibition at 100 µM (Q96C12; [4]): 62%
inhibition at 100 µM (Q9UKV5; [4]): 4%
inhibition at 500 µM (Q9UKV5; [5]): 19%
inhibition at 500 µM (Q92624; [5]): 100%
inhibition at 100 µM (Q96DX5; [4]): 30%
inhibition at 100 µM (Q9NYG5; [4]): 41%
inhibition at 100 µM (P60006; 100 uM, read-out: KB02_100 uM_percent_inhibition): 44%
inhibition at 500 µM (P60006; [5]): 93%

Compound: O=C(CCl)Nc1cc(C(F)(F)F)cc(C(F)(F)F)c1 [KBO3]
KB03_100 uM_percent_inhibition (Q96C12; 100 uM): 40%
KB03_500 uM_percent_inhibition (Q9UKV5; 500 uM): 48%
KB03_100 uM_percent_inhibition (Q92624; 100 uM): 56%
KB03_100 uM_percent_inhibition (Q96DX5; 100 uM): 33%
KB03_100 uM_percent_inhibition (Q9NYG5; 100 uM): 51%
KB03_100 uM_percent_inhibition (P60006; 100 uM): 49%
KB03_500 uM_percent_inhibition (P60006; 500 uM): 65%
